The species named for data set [1] is Rattus norvegicus. Briefly: Toxicity in Rattus norvegicus Wistar (rat). The data set is classed as organism-based. As to conditions: in vivo.
Data set [2] concerns the target T1, Prostaglandin G/H synthase 1 (Homo sapiens, UniProt P23219). As to the kind of experiment: Inhibition of COX1 (unknown origin) at 1 uM.
Data set [3] deals with Rattus norvegicus. As to the kind of experiment: Anti-inflammatory activity in Rattus norvegicus Wistar (rat) assessed as inhibition of carrageenan-induced paw edema at 10 mg/kg administered for 1 hr followed by carrageenan challenge measured at 1 hr relative to control. The data set is classed as functional. Background: The carrageenan paw model is a standard test of acute inflammation.

Data set [4] relates to Rattus norvegicus. Briefly: Anti-inflammatory activity in Rattus norvegicus Wistar (rat) assessed as decrease in cotton pellet-induced final granuloma weight at 10 mg/kg, po administered for 7 days measured on day 8. Type of data set: functional, organism-based. Details: dose 10 mg/kg.
Data set [5] relates to Rattus norvegicus. As to the kind of experiment: Anti-inflammatory activity in Rattus norvegicus Wistar (rat) assessed as decrease in cotton pellet-induced dry granuloma weight at 10 mg/kg, po administered for 7 days measured on day 8. Also noted: dose 10 mg/kg. Type of data set: functional, organism-based.
Data set [6] relates to Rattus norvegicus. As to the kind of experiment: Anti-inflammatory activity in Rattus norvegicus Wistar (rat) assessed as decrease in cotton pellet-induced wet granuloma weight at 10 mg/kg, po administered for 7 days measured on day 8. The data set is classed as functional, organism-based. Also noted: dose 10 mg/kg.
In data set [7] the test system is Rattus norvegicus. Briefly: Anti-inflammatory activity in Rattus norvegicus Wistar (rat) assessed as inhibition of carrageenan-induced paw edema at 10 mg/kg administered for 1 hr followed by carrageenan challenge measured at 4 hr relative to control. Type of data set: functional.
Data set [8] deals with Rattus norvegicus. Briefly: Anti-inflammatory activity in Rattus norvegicus Wistar (rat) assessed as inhibition of carrageenan-induced paw edema at 10 mg/kg administered for 1 hr followed by carrageenan challenge measured at 3 hr relative to control. Type of data set: functional.
Data set [9] relates to Rattus norvegicus. As to the kind of experiment: Anti-inflammatory activity in Rattus norvegicus Wistar (rat) assessed as inhibition of carrageenan-induced paw edema at 10 mg/kg administered for 1 hr followed by carrageenan challenge measured at 2 hr relative to control. Type of data set: functional.
The target of data set [10] is T1, Prostaglandin G/H synthase 1. As to the kind of experiment: Binding affinity to COX1 (unknown origin).
Data set [11] addresses T2, Prostaglandin G/H synthase 2 (Homo sapiens, UniProt P35354).
T2 sequence (P35354 whole entry): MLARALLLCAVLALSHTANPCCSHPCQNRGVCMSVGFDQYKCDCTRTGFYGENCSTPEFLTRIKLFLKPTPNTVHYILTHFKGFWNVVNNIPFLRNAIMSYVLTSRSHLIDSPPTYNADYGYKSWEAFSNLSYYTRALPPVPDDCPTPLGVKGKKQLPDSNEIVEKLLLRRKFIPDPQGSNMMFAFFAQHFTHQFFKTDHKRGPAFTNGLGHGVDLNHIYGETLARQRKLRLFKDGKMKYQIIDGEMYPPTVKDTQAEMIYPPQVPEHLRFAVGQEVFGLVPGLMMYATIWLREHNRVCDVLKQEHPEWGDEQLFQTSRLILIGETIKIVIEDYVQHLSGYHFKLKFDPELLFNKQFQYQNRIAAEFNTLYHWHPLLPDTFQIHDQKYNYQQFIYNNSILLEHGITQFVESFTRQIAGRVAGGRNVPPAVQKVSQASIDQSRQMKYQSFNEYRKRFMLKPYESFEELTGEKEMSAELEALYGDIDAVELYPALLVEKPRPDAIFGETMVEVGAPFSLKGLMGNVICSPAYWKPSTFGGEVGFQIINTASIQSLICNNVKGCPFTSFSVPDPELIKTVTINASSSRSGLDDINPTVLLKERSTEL
Briefly: Binding affinity to COX2 (unknown origin).

In data set [12] the test system is Rattus norvegicus. As to the kind of experiment: Ulcerogenic activity in Rattus norvegicus Wistar (rat) stomach at 5 mg/kg, po relative to vehicle-treated control. The data set is classed as toxicity, organism-based. Also noted: dose 5 mg/kg, route oral. As to conditions: in vivo.
The subject of data set [13] is Rattus norvegicus. Briefly: Gastrointestinal toxicity in Rattus norvegicus Wistar (rat) duodenum assessed as appearance of redness at 5 mg/kg, po relative to vehicle-treated control. Type of data set: organism-based. Details: dose 5 mg/kg, route oral. As to conditions: in vivo.
Data set [14] relates to Rattus norvegicus. As to the kind of experiment: Gastrointestinal toxicity in Rattus norvegicus Wistar (rat) stomach assessed as appearance of redness at 5 mg/kg, po relative to vehicle-treated control. The following applies: in vivo. The data set is classed as organism-based. Also noted: dose 5 mg/kg, route oral.
Data set [15] deals with Rattus norvegicus. As to the kind of experiment: Toxicity in Rattus norvegicus Wistar (rat) assessed as mortality at 5 mg/kg, po administered for 7 days measured on day 8. Type of data set: organism-based. The following applies: in vivo, 168 h. Details: dose 5 mg/kg, route oral.
Data set [16] has as its system Rattus norvegicus. As to the kind of experiment: Anti-inflammatory activity in Rattus norvegicus Wistar (rat) assessed as cotton pellet-induced final granuloma weight at 5 mg/kg, po administered for 7 days measured on day 8 (reference value: 110.3 +/- 8.7 mg). The data set is classed as functional.
Data set [17] has as its system Rattus norvegicus. As to the kind of experiment: Anti-inflammatory activity in Rattus norvegicus Wistar (rat) assessed as inhibition of carrageenan-induced paw edema administered for 1 hr followed by carrageenan challenge measured at 4 hr relative to control. The data set is classed as functional.
In data set [18] the test system is Rattus norvegicus. Briefly: Anti-inflammatory activity in Rattus norvegicus Wistar (rat) assessed as inhibition of carrageenan-induced paw edema administered for 1 hr followed by carrageenan challenge measured at 3 hr relative to control. The data set is classed as functional.
In data set [19] the test system is Rattus norvegicus. Briefly: Anti-inflammatory activity in Rattus norvegicus Wistar (rat) assessed as inhibition of carrageenan-induced paw edema administered for 1 hr followed by carrageenan challenge measured at 2 hr relative to control. Type of data set: functional.
Data set [20] relates to Rattus norvegicus. Briefly: Anti-inflammatory activity in Rattus norvegicus Wistar (rat) assessed as inhibition of carrageenan-induced paw edema administered for 1 hr followed by carrageenan challenge measured at 1 hr relative to control. Type of data set: functional.
The target of data set [21] is T1, Prostaglandin G/H synthase 1. As to the kind of experiment: Inhibition of COX1 (unknown origin).
The subject of data set [22] is Rattus norvegicus. Briefly: Ulcerogenic activity in Rattus norvegicus Wistar (rat) stomach at 10 mg/kg, po relative to vehicle-treated control. The data set is classed as toxicity, organism-based. As to conditions: in vivo. Also noted: dose 10 mg/kg, route oral.
The subject of data set [23] is Rattus norvegicus. As to the kind of experiment: Gastrointestinal toxicity in Rattus norvegicus Wistar (rat) duodenum assessed as appearance of redness at 10 mg/kg, po relative to vehicle-treated control. The following applies: in vivo. Details: dose 10 mg/kg, route oral. Type of data set: organism-based.
The target of data set [24] is T3, Prostaglandin G/H synthase 2 (Homo sapiens) (UniProt P35354).
T3 sequence (whole entry): T2 sequence (P35354 whole entry)
Briefly: Inhibition of COX2 (unknown origin) at 10 uM.

The subject of data set [25] is Rattus norvegicus. Briefly: Gastrointestinal toxicity in Rattus norvegicus Wistar (rat) stomach assessed as appearance of redness at 10 mg/kg, po relative to vehicle-treated control. The following applies: in vivo. The data set is classed as organism-based. Also noted: dose 10 mg/kg, route oral.
Data set [26] deals with Rattus norvegicus. Briefly: Anti-inflammatory activity in Rattus norvegicus Wistar (rat) assessed as cotton pellet-induced final granuloma weight at 10 mg/kg, po administered for 7 days measured on day 8 (reference value: 110.3 +/- 8.7 mg). The data set is classed as functional.

Calls of active or inactive are those of the source. No cut-off for these calls is given here.

T1 sequence (P23219 whole entry): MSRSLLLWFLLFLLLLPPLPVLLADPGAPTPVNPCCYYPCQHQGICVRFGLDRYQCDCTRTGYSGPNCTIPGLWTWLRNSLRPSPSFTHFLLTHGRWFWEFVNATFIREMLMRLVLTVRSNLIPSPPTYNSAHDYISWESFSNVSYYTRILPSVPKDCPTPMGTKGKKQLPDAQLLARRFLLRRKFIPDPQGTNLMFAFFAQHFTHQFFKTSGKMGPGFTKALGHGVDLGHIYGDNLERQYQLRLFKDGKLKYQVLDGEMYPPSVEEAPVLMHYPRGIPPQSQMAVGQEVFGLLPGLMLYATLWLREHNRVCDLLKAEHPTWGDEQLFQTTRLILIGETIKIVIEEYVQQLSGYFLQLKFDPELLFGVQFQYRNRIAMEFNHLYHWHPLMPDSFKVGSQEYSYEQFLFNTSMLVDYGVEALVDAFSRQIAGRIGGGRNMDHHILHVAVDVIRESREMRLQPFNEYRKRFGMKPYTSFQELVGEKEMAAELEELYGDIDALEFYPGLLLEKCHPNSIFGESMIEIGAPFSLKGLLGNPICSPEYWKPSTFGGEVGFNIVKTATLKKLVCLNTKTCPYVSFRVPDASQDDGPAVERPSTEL

The inhibition is how much of the control response was suppressed. One may read the inhibition in vivo as the percentage by which the read-out fell short of the control. What is called Kd is the concentration at which binding is half-saturated. Take `O=C(O)c1cn2ccccc2n1`: in the data set listed under Rattus norvegicus [1], the LD turned out to be 1000 mg/kg. In [2], this compound returned an inhibition of 15.6%. Moreover, the inhibition in vivo at 10 mg/kg in the data set with Rattus norvegicus [3] was found to be 75.6%; with Rattus norvegicus [7], 74%; in the data set with Rattus norvegicus [8], 69.4%; with Rattus norvegicus [9], 62.5%. The result in the data set with Rattus norvegicus [4], in the data set with Rattus norvegicus [5] and in the data set on Rattus norvegicus [6] was Active. Further, the equilibrium dissociation constant (Kd) in data set [10] was determined as 1.54 µM; in data set [11] it was 0.652 µM.
With `COc1ccc2c(c1)c(CC(=O)O)c(C)n2C(=O)c1ccc(Cl)cc1` [INDOMETHACIN], the Activity result is listed as “Toxic” with Rattus norvegicus [12]; “Toxic” in the data set with Rattus norvegicus [13]; “Toxic” in the data set with Rattus norvegicus [14]; “Toxic” with Rattus norvegicus [15]; 42.3 mg with Rattus norvegicus [16]. Also, the “inhibition (INH)” value came out at 74.6% in the data set with Rattus norvegicus [17], 77.3% with Rattus norvegicus [18], 65.5% in the data set with Rattus norvegicus [19] and 62.6% in the data set with Rattus norvegicus [20].
`CCOC(=O)c1nc2ccccn2c1[N+](=O)[O-]`: the LD in the data set listed under Rattus norvegicus [1] is 1000 mg/kg. The inhibition result in data set [21] was “inactive”. The inhibition in vivo at 10 mg/kg in the data set on Rattus norvegicus [3] was 54.2%; in the data set on Rattus norvegicus [7], 14.2%; in the data set with Rattus norvegicus [8], 25.4%; in the data set on Rattus norvegicus [9] it was 43.1%. The Kd in data set [10] came to 1.04 µM; in [11], 0.227 µM.
With `CC(C(=O)O)c1ccc(-c2cn3ccccc3n2)cc1` (stereo unspecified) [MIROPROFEN], the Kd in [10] came to 0.185 µM; in data set [11], 0.0481 µM.
As for `Nc1c(C(=O)O)nc2ccccn12`, in the data set filed under Rattus norvegicus [1], the LD was 1000 mg/kg. Moreover, the Activity result in the data set on Rattus norvegicus [22] was “Non-toxic”; in the data set on Rattus norvegicus [23], “Non-toxic”; in the data set with Rattus norvegicus [25], “Non-toxic”; in the data set on Rattus norvegicus [26], 70.5 mg. Further, the inhibition entry in [21] was “inactive”. In data set [24], this compound returned an inhibition of 20%. The inhibition in vivo at 10 mg/kg is 61.3% with Rattus norvegicus [3], 73.2% in the data set with Rattus norvegicus [7], 80.3% in the data set with Rattus norvegicus [8] and 76.7% in the data set on Rattus norvegicus [9]. In addition, the result with Rattus norvegicus [5] and with Rattus norvegicus [6] was Active. The Kd stood at 0.262 µM in data set [10] and 0.448 µM in data set [11].
In the data set listed under Rattus norvegicus [1], `O=C(O)c1nc2ccccn2c1[N+](=O)[O-]` had an LD of 1000 mg/kg. Also, the inhibition result in data set [21] was “inactive”. For the same compound, the inhibition in vivo at 10 mg/kg came out at 57.2% in the data set with Rattus norvegicus [3], 14.2% in the data set on Rattus norvegicus [7], 24.4% in the data set on Rattus norvegicus [8] and 43.5% in the data set on Rattus norvegicus [9]. The result in the data set on Rattus norvegicus [4], with Rattus norvegicus [5] and in the data set on Rattus norvegicus [6] was Active. Besides, the equilibrium dissociation constant (Kd) in data set [10] was 0.0156 µM; in data set [11], 0.0501 µM.

Source of the values: ChEMBL document CHEMBL3045211, “Acute and chronic anti-inflammatory evaluation of imidazo[1,2-a]pyridine carboxylic acid derivatives and docking analysis” (Med Chem Res, 2012).
